Laboratory results: ChEMBL document CHEMBL1201862, “PubChem BioAssay data set” (2004)
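Five compound concentrations were applied to cells in 96-well plates for 48 hours; endpoints were derived by simple linear interpolation of the resulting dose-response curve. GI50 is the concentration that inhibits growth by half.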 The source made the active and inactive calls. Cut-off read from the data, not from the text of the source: active = GI50 up to about 1.1 µM and inactive = higher. Positions of bridges follow the written chain, without caps; N, C: chain ends. Non-standard residues stand in square brackets, D forms with d. Residues, ends and D or L forms follow the SMILES beside them. ξ: configuration not given here. *: point of attachment. X28 = O=C(/C=C/C=C/C=C/C=C/C=C/C(=O)*)NC1=C(O)CCC1=O; Pro(4R-Me) = C[C@H]1CN[C@H](C(=O)O)C1; NMeA = CN[C@@H](C)C(=O)O; ξF = NC(Cc1ccccc1)C(=O)O; ξA = CC(N)C(=O)O

Tests used:
Experiment in all cases: inhibition of tumour cell growth, NCI panel, 48 h
A549 = test system: A549
BT-549 = test system: BT-549
CCRF-CEM = test system: CCRF-CEM
HCT-15 = test system: HCT-15
HOP-92 = test system: HOP-92
IGROV-1 = test system: IGROV-1
K562 = test system: K562
MDA-MB-435 = test system: MDA-MB-435
MOLT-4 = test system: MOLT-4
NCI-H522 = test system: NCI-H522
NCI/ADR-RES = test system: NCI/ADR-RES
OVCAR-8 = test system: OVCAR-8
SF-268 = test system: SF-268
SK-MEL-2 = test system: SK-MEL-2
SK-MEL-5 = test system: SK-MEL-5
SN12C = test system: SN12C
SW-620 = test system: SW-620
T47D = test system: T47D
TK-10 = test system: TK-10

Row | SMILES | GI50 (A549) | GI50 (BT-549) | GI50 (CCRF-CEM) | GI50 (HCT-15) [µM] | GI50 (HOP-92) | GI50 (IGROV-1) | GI50 (K562) | GI50 (MDA-MB-435) | GI50 (MOLT-4) | GI50 (NCI-H522) | GI50 (NCI/ADR-RES) | GI50 (OVCAR-8) | GI50 (SF-268) | GI50 (SK-MEL-2) | GI50 (SK-MEL-5) | GI50 (SN12C) | GI50 (SW-620) | GI50 (T47D) | GI50 (TK-10)
1 | O=C(O)c1ccc(C(=O)c2ccccc2C(=O)O)cc1C(=O)O | > 100 µM (inactive) | > 100 µM (inactive) | > 26.4 µM (inactive) | > 100 | > 100 µM (inactive) | > 100 µM (inactive) | > 100 µM (inactive) | > 100 µM (inactive) | > 100 µM (inactive) | > 100 µM (inactive) | > 100 µM (inactive) | > 100 µM (inactive) | > 100 µM (inactive) | > 100 µM (inactive) | > 100 µM (inactive) | > 100 µM (inactive) | > 100 µM (inactive) | > 100 µM (inactive) | > 100 µM (inactive)
2 | O=C1CC(c2ccc(Cl)cc2)C2(C(=O)NC(=O)NC2=O)C(c2ccc(Cl)cc2)C1 (configuration not stated) | – | 30.7 µM (inactive) | 30.3 µM (inactive) | 22.9 | 14.7 µM (inactive) | 18 µM (inactive) | 7.5 µM (inactive) | 17.3 µM (inactive) | 0.0075 µM (active) | 17.5 µM (inactive) | 26.4 µM (inactive) | 27.5 µM (inactive) | 42.8 µM (inactive) | 15.6 µM (inactive) | 14.5 µM (inactive) | 21.6 µM (inactive) | 26.2 µM (inactive) | 17.9 µM (inactive) | 54.8 µM (inactive)
3 | O=C(O)C1Cc2c([nH]c3ccccc23)C(CCCCO)N1 (configuration not stated) | > 100 µM (inactive) | > 100 µM (inactive) | > 100 µM (inactive) | > 100 | > 100 µM (inactive) | > 100 µM (inactive) | > 100 µM (inactive) | > 100 µM (inactive) | > 100 µM (inactive) | > 100 µM (inactive) | > 100 µM (inactive) | > 100 µM (inactive) | > 100 µM (inactive) | > 100 µM (inactive) | > 100 µM (inactive) | > 100 µM (inactive) | > 100 µM (inactive) | > 100 µM (inactive) | > 100 µM (inactive)
4 | Oc1cccc2c(Br)ccnc12 | 4.34 µM (inactive) | 8.93 µM (inactive) | 0.38 µM (active) | 2.27 | 5.71 µM (inactive) | 2.12 µM (inactive) | 0.593 µM (active) | 5.92 µM (inactive) | 0.855 µM (active) | 3.16 µM (inactive) | 2.08 µM (inactive) | 1.22 µM (inactive) | 0.767 µM (active) | 11.4 µM (inactive) | 2.74 µM (inactive) | 3.62 µM (inactive) | 3.51 µM (inactive) | 3.17 µM (inactive) | 32.7 µM (inactive)
5 | Oc1cccc(-c2cn3cc(C(F)(F)F)ccc3n2)c1 | 28.6 µM (inactive) | 37.2 µM (inactive) | 24.1 µM (inactive) | 29.2 | 55.2 µM (inactive) | 20.4 µM (inactive) | 30.5 µM (inactive) | 32 µM (inactive) | 17.1 µM (inactive) | 13.5 µM (inactive) | 25.9 µM (inactive) | 27.8 µM (inactive) | 38.8 µM (inactive) | 39.5 µM (inactive) | 22.5 µM (inactive) | 47.9 µM (inactive) | 67.8 µM (inactive) | 2.39 µM (inactive) | 22.5 µM (inactive)
6 | COc1ccccc1CNC(=O)[C@H](Cc1ccc(O)cn1)NC(C)=O | > 100 µM (inactive) | > 100 µM (inactive) | > 100 µM (inactive) | > 100 | 57.7 µM (inactive) | > 100 µM (inactive) | > 100 µM (inactive) | > 100 µM (inactive) | – | > 100 µM (inactive) | > 100 µM (inactive) | – | > 100 µM (inactive) | > 100 µM (inactive) | > 100 µM (inactive) | > 100 µM (inactive) | > 100 µM (inactive) | > 100 µM (inactive) | > 100 µM (inactive)
7 | Cc1ccc(S(=O)(=O)Nc2nc3ccccc3c(=O)n2C2CCCCC2)cc1 | > 100 µM (inactive) | 28.1 µM (inactive) | > 100 µM (inactive) | > 100 | 67.5 µM (inactive) | > 100 µM (inactive) | > 100 µM (inactive) | > 100 µM (inactive) | > 100 µM (inactive) | 41.7 µM (inactive) | > 100 µM (inactive) | > 100 µM (inactive) | > 100 µM (inactive) | > 100 µM (inactive) | > 100 µM (inactive) | > 100 µM (inactive) | > 100 µM (inactive) | > 100 µM (inactive) | > 100 µM (inactive)
8 | O=C(NCCCN(CCCCN(CCCNC(=O)C(F)(F)F)Cc1ccc2ccccc2c1)Cc1ccc2ccccc2c1)C(F)(F)F | > 100 µM (inactive) | 6.22 µM (inactive) | > 78.2 µM (inactive) | 6.12 | > 100 µM (inactive) | 7.87 µM (inactive) | 2.48 µM (inactive) | 1.9 µM (inactive) | 5.28 µM (inactive) | 8.93 µM (inactive) | 73.5 µM (inactive) | > 100 µM (inactive) | > 100 µM (inactive) | > 20 µM (inactive) | 1.75 µM (inactive) | > 100 µM (inactive) | > 100 µM (inactive) | 5.05 µM (inactive) | > 100 µM (inactive)
9 | O=C1CN(c2ccccc2)Cc2nc(Cl)ccc2N1 | > 100 µM (inactive) | > 100 µM (inactive) | > 100 µM (inactive) | > 100 | 57.4 µM (inactive) | > 100 µM (inactive) | > 100 µM (inactive) | > 100 µM (inactive) | > 100 µM (inactive) | > 100 µM (inactive) | 94 µM (inactive) | > 100 µM (inactive) | > 100 µM (inactive) | > 100 µM (inactive) | > 100 µM (inactive) | > 100 µM (inactive) | > 100 µM (inactive) | > 100 µM (inactive) | > 100 µM (inactive)
10 | N#CC(c1ccnc(Cl)n1)c1nc2ccccc2s1 (configuration not stated) | 8.59 µM (inactive) | 3.29 µM (inactive) | 0.063 µM (active) | 3.44 | 2.77 µM (inactive) | 3.65 µM (inactive) | 2 µM (inactive) | 3.92 µM (inactive) | 3.55 µM (inactive) | 1.6 µM (inactive) | 2.67 µM (inactive) | 3.78 µM (inactive) | 4.98 µM (inactive) | 3.52 µM (inactive) | 1.33 µM (inactive) | 2.87 µM (inactive) | 4.3 µM (inactive) | 4.19 µM (inactive) | 7.33 µM (inactive)
11 | C=C1CC2[C@H](C)C(=O)CCC2(C)C2=C1C1CCC(C(C)CCC(=C)C(C)C(=O)O)C1(C)CC2=O (some centres not stated) | 66.7 µM (inactive) | 37.2 µM (inactive) | 11.8 µM (inactive) | 40.5 | 29.7 µM (inactive) | 56.9 µM (inactive) | 9.75 µM (inactive) | 58.5 µM (inactive) | 16.8 µM (inactive) | 47.1 µM (inactive) | 84.1 µM (inactive) | 75.7 µM (inactive) | > 100 µM (inactive) | > 100 µM (inactive) | 31.3 µM (inactive) | > 100 µM (inactive) | 61.7 µM (inactive) | 41.6 µM (inactive) | 44.9 µM (inactive)
12 | CN(C)CCCNc1ccnc2cc([N+](=O)[O-])ccc12 | 22.5 µM (inactive) | 19.1 µM (inactive) | > 100 µM (inactive) | 12.1 | 3.38 µM (inactive) | 4.06 µM (inactive) | > 100 µM (inactive) | 14.8 µM (inactive) | > 100 µM (inactive) | 3.6 µM (inactive) | 20 µM (inactive) | 13.9 µM (inactive) | 21 µM (inactive) | 14.5 µM (inactive) | 11.9 µM (inactive) | 17.2 µM (inactive) | 7.45 µM (inactive) | 5.98 µM (inactive) | 30.7 µM (inactive)
13 | COc1ccc(NC2=NCCO2)c2c1CCCC2 | 40.7 µM (inactive) | 30.2 µM (inactive) | 25.5 µM (inactive) | 31.6 | 19.8 µM (inactive) | 22.8 µM (inactive) | 28.3 µM (inactive) | 29.6 µM (inactive) | 10.5 µM (inactive) | 31.8 µM (inactive) | 27.6 µM (inactive) | 36.7 µM (inactive) | – | 18.8 µM (inactive) | 17.5 µM (inactive) | – | 47.4 µM (inactive) | 35.2 µM (inactive) | 51.3 µM (inactive)
14 | C=CCOc1ccc(C(=N/NC(=O)c2ccccc2)/N=N/c2ccc([N+](=O)[O-])cc2)cc1OC | > 100 µM (inactive) | > 100 µM (inactive) | > 100 µM (inactive) | > 100 | 18.6 µM (inactive) | > 100 µM (inactive) | – | > 100 µM (inactive) | 92.5 µM (inactive) | > 100 µM (inactive) | > 100 µM (inactive) | > 100 µM (inactive) | > 100 µM (inactive) | > 100 µM (inactive) | 76.6 µM (inactive) | > 100 µM (inactive) | > 100 µM (inactive) | 29 µM (inactive) | > 100 µM (inactive)
15 | CC1NC(=O)[C@H](C)N(C)C(=O)[C@@H]2CCCN2C(=O)[C@@H](NC(=O)C(Cc2ccccc2)NC(=O)/C=C/C=C/C=C/C=C/C=C/C(=O)NC2=C(O)CCC2=O)COC(=O)[C@@H]2C[C@@H](C)CN2C1=O (stereo partly drawn) (X28-[ξF]SP[NMeA][ξA][Pro(4R-Me)]; ester 2-C) | > 100 µM (inactive) | > 100 µM (inactive) | > 100 µM (inactive) | > 100 | > 100 µM (inactive) | > 100 µM (inactive) | > 100 µM (inactive) | > 100 µM (inactive) | – | > 100 µM (inactive) | > 100 µM (inactive) | – | > 100 µM (inactive) | > 100 µM (inactive) | > 100 µM (inactive) | > 100 µM (inactive) | > 100 µM (inactive) | > 100 µM (inactive) | 54.8 µM (inactive)
